# Peptide text beside a SMILES is read from it. * marks the point of attachment. Cbz = O=C(OCc1ccccc1)*; CH2F = FC*
# How the values were obtained:
# Type in all cases: cell-based, human
# PC-3 cells [1] = test: colony formation (clonogenic) assay; conditions: PC-3, PTS 1.5 mM, 10 days, FIG. 6E
# Protocol: To assay the anchorage-dependent clonogenic effect, each individual PC-3 and DU-145 cells (150 cells/well) were seeded in a 6-well plate. After a 10-day treatment with p-TSA, the cell colonies were rinsed with phosphate-buffered saline (PBS), stained with 0.4% (w/v) crystal violet dissolved in 20% methanol, and lysed by 50 mM sodium citrate dissolved in 50% ethanol. The absorbance was read at a wavelength of 595 nm.
# To further substantiate the role of Akt, the Myr-Akt overexpressed PC-3 cells were prepared with the method shown as follows. The plasmid encoding Myr-Akt, an N-terminally myristoylation signal-attached Akt, was a gift from Professor Mien-Chie Hung (The University of Texas, M.D. Anderson Cancer Center). For transfection, PC-3 cells were seeded into 60-mm tissue culture dishes with 30% confluence and grown for 24 h to 50-60% confluence. Each dish was washed with serum-free Opti-MEM (Life Technologies), and 2 ml of the serum-free Opti-MEM was then added. Aliquots containing Myr-Akt expression vector or a control plasmid in serum-free Opti-MEM were transfected into cells using Lipofectamine 2000 (Invitrogen) following the manufacturer's instructions. After incubation for 6 h at 37° C., cells were washed with serum-free Opti-MEM and incubated in 10% FBS-containing RPMI-1640 medium for 48 h. The cells were treated with or without p-TSA and then the related analyses were performed. […] Furthermore, the functional rescue of Myr-Akt was determined. […] However, overexpression of Myr-Akt had minimal effect on p-TSA-induced cyclin D1 down-regulation.
# DU-145 cells = test: Western blot of Bcl-2 family members, cell cycle regulators and Akt/mTOR/p70S6K pathway signals
# Protocol: (§1) In addition, protein expression assay of each Mcl-1, Bcl-2, Bid, PUMA and Bak was performed by western blotting with methods described as follows. After treatment of PC-3 and DU145 cells with p-TSA, the cells were harvested with trypsinization, centrifuged and lysed in 0.1 ml of lysis buffer containing 10 mM Tris-HCl (pH 7.4), 150 mM NaCl, 1 mM EGTA, 1% Triton X-100, 1 mM PMSF, 10 μg/ml leupeptin, 10 μg/ml aprotinin, 50 mM NaF and 100 μM sodium orthovanadate. Total protein was quantified, mixed with the sample buffer and boiled at 90° C. for 5 min. Equal amount of protein (30 μg) was separated by electrophoresis in 8% or 12% SDS-PAGE, transferred to PVDF membranes and detected with specific antibodies (1:1000 dilution) for each of Mcl-1, Bcl-2, Bid, PUMA and Bak proteins. The immunoreactive proteins after incubation with appropriately labeled secondary antibody (1:3000 dilution) were detected with an enhanced chemiluminescence detection kit (Amersham, Buckinghamshire, United Kingdom). […] These effects were correlated with the mitochondrial stress.
# (§2) During G1 phase, cells grow in size and synthesize mRNA and proteins which are necessary to DNA synthesis. The serine/threonine kinases mTOR and p70S6K that regulate protein synthesis (mRNA translation) through affecting the phosphorylation or activities of several downstream translation factors are critical regulators in G1 phase. Protein expression assay of each Akt, mTOR 4E-BP1 and p70S6K was performed by Western blotting.
# PC-3 cells [2] = test: as above; conditions: PC-3, 1 h, FIGS. 6A to 6D
# Protocol: as §1, §2
# PC-3 cells [3] = test: PTS-induced apoptosis with Z-VAD-FMK (PI staining and nucleosomal DNA fragmentation assay); conditions: PC-3, 24 hours, FIG. 2E and 2F
# Protocol: Flow cytometric analysis was performed as follows. Cells were harvested by trypsinization, fixed with 70% (v/v) alcohol at 4° C. for 30 min and washed with PBS. After centrifugation, the cells were incubated in phosphate-citric acid buffer (0.2 mol/l NaHPO4, 0.1 mol/l citric acid, pH 7.8) for 30 min at room temperature. The cells were then centrifuged and resuspended with 0.5 ml propidium iodide (PI) solution containing Triton X-100 (0.1% v/v), RNase (100 μg/ml) and PI (80 μg/ml). DNA content was analyzed with the FACScan and CellQuest software (Becton Dickinson, Mountain View, Calif., United States).
# The DNA fragmentation was determined for cell death determination by use of the Cell Death Detection ELISAplus kit (Roche, Mannheim, Germany) The assay was based on the quantitative in vitro determination of cytoplasmic histone-associated DNA fragments (mono- and oligonucleosomes) after induced cell death. After the treatment with the compound, the cells were lysed and centrifuged, and the supernatant was used for the detection of nucleosomal DNA according to the manufacturer's protocol.
# [4] = particularly in DU-145 cells, 1 h
Structure (SMILES),"effect of cholesterol on PTS-induced inhibition of cell growth, colony formation assay (PC-3 cells [1])","effect of cholesterol supplement on p-TSA-induced decrease of Akt and p70S6K phosphorylation (DU-145 cells; DU-145, 1 h, FIGS. 6A to 6D)","Akt phosphorylation, cholesterol by itself (DU-145 cells; [4])","cyclin D1 protein expression, cholesterol by itself (DU-145 cells; [4])",effect of cholesterol supplement on p-TSA-induced decrease of Akt and p70S6K phosphorylation (PC-3 cells [2]),effect of Z-VAD-FMK on PTS-induced apoptosis (PC-3 cells [3])
"CC(C)CCC[C@@H](C)[C@H]1CC[C@H]2[C@@H]3CC=C4C[C@@H](O)CC[C@]4(C)[C@H]3CC[C@]12C [cholesterol, reference compound]",significantly rescued PTS-induced inhibition of cell growth,significantly rescued,increase,decrease,significantly rescued,
COC(=O)C[C@H](NC(=O)[C@H](C)NC(=O)[C@@H](NC(=O)OCc1ccccc1)C(C)C)C(=O)CF [Z-VAD-FMK] (Cbz-Val-Ala-Asp(OMe)-CH2F),,,,,,profoundly inhibited PTS-induced apoptosis

# Reference: patent publication US20200338028A1, “BENZENESULFONAMIDE DERIVATIVES AND METHOD FOR MODULATING LIPID RAFT” (Gongwin Biopharm Co., Ltd., priority 2017, published 2020)
